Calls of active or inactive are those of the source. For most assays here, no stated cut-off is given here; in the data, actives have a measured Kd and inactives only a lower limit.

17 compounds from ChEMBL document CHEMBL3991601, “The target landscape of clinical kinase drugs” (Science, 2017) can be followed below.

Assay [1] deals with T1, Ferrochelatase, mitochondrial (Homo sapiens, UniProt P22830).
T1 sequence (P22830 whole entry): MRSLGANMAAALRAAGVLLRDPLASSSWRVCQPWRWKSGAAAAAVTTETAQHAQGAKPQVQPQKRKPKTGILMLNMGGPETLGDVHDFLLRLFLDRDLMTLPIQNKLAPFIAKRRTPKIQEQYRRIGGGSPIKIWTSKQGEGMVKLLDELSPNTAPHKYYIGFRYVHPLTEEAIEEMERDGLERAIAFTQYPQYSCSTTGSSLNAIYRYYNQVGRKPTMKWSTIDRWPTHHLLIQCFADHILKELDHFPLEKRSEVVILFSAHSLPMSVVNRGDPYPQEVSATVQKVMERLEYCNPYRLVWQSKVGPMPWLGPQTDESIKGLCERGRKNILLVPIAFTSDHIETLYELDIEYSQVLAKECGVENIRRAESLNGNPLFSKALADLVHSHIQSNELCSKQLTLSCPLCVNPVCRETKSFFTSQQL

Assay [2] has as its target T2, Mitogen-activated protein kinase kinase kinase 3 (Homo sapiens, UniProt Q99759).
T2 sequence (Q99759 whole entry): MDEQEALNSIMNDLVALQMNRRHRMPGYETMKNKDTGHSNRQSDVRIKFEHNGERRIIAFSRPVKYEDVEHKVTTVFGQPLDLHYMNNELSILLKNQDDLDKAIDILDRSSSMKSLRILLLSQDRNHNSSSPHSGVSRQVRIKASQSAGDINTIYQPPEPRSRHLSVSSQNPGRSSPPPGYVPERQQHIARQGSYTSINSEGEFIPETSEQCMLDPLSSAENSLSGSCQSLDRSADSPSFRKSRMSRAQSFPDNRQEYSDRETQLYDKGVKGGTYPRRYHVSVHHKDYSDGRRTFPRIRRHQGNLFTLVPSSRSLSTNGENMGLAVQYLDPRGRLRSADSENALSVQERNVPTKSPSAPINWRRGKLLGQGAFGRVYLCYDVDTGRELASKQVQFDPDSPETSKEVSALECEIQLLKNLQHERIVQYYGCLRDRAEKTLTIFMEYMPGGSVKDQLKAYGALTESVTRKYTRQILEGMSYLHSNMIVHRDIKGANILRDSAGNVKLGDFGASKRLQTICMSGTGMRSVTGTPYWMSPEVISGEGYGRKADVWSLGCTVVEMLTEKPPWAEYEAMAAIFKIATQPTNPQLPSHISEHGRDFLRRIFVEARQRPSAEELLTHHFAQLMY

For assay [3], the target named is Serine/threonine-protein kinase PAK 2 (Homo sapiens, UniProt Q13177).
The target in assay [4] is T3, Glycogen phosphorylase, brain form (Homo sapiens, UniProt P11216).
T3 sequence (P11216 whole entry): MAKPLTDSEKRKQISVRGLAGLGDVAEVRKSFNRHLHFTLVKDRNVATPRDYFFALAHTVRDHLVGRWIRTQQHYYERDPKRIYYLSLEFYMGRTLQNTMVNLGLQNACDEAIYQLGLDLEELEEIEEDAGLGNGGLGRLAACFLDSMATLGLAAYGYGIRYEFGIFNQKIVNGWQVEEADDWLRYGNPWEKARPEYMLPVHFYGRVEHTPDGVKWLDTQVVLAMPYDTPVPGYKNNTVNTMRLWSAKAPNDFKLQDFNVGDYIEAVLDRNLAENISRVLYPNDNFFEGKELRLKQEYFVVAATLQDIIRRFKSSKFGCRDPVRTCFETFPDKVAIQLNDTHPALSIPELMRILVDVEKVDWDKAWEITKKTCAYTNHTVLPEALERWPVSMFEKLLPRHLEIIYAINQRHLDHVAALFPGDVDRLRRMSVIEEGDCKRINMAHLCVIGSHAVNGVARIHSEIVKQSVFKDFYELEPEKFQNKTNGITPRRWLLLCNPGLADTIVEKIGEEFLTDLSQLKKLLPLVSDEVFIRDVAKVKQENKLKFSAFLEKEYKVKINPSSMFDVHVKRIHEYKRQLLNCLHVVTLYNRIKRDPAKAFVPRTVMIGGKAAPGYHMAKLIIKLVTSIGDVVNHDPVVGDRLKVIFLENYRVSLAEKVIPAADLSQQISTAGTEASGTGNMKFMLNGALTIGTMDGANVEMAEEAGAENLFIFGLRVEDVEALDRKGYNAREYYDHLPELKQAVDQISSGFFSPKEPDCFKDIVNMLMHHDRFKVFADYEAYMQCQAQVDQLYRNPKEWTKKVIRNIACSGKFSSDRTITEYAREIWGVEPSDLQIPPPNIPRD

Assay [5] concerns the target T4, Serine/threonine-protein kinase 3 (Homo sapiens, UniProt Q13188).
T4 sequence (Q13188 whole entry): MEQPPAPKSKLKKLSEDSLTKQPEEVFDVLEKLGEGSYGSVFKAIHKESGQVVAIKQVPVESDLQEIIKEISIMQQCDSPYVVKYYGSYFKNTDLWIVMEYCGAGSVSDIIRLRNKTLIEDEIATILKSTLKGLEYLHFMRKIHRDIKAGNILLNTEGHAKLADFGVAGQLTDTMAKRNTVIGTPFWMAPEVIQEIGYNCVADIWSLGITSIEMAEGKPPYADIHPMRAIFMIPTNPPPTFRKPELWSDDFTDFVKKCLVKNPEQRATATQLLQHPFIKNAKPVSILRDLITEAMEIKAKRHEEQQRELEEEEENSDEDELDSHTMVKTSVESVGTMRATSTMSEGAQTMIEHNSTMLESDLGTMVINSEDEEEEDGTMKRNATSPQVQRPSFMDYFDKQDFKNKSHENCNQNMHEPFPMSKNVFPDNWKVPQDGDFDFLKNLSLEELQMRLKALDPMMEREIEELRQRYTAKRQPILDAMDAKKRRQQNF

Sequence of Serine/threonine-protein kinase PAK 2 (Q13177 whole entry): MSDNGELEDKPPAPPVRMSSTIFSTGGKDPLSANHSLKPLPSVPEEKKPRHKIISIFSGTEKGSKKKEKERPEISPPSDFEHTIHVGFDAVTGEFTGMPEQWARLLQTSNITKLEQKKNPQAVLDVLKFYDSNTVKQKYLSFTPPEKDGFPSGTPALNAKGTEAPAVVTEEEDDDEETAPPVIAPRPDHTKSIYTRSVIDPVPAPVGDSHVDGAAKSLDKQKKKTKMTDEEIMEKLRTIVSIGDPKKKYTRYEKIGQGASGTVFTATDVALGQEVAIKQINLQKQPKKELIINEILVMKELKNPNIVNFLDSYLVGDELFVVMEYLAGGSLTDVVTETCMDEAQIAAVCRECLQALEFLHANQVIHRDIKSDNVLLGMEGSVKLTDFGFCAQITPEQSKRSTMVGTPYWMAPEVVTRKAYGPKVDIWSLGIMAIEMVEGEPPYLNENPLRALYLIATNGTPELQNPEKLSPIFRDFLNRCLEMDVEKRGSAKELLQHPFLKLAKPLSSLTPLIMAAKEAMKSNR

For the compound `NC[C@@](O)(c1ccc(Cl)cc1)c1ccc(-c2cn[nH]c2)cc1` [AT-13148], the Kd in assay [1], in assay [2], in assay [3], in assay [4] and in assay [5] was > 30 µM (inactive) each time.

With `COc1cc(F)c(F)c(Nc2ccc(I)cc2F)c1NS(=O)(=O)C1(C[C@H](O)CO)CC1` [REFAMETINIB], the Kd in assay [1], in assay [2], in assay [3], in assay [4] and in assay [5] was > 30 µM (inactive) each time.

With `COc1cc2ncnc3c2cc1OCCCCCN(C)Cc1ccc(Br)cc1N3` [JNJ-26483327], the dissociation constant Kd was 3.97 µM in assay [1]; > 30 µM (inactive) in assay [2]; > 30 µM (inactive) in assay [3]; > 30 µM (inactive) in assay [4]; > 30 µM (inactive) in assay [5].

Consider `C=CC(=O)Nc1cccc(Nc2nc(Nc3ccc(N4CCN(C(C)=O)CC4)cc3OC)ncc2C(F)(F)F)c1` [ROCILETINIB], for which the Kd in assay [1], in assay [2], in assay [3], in assay [4] and in assay [5] was > 30 µM (inactive) each time.

On to `CCc1cc2c(cc1N1CCC(N3CCOCC3)CC1)C(C)(C)c1[nH]c3cc(C#N)ccc3c1C2=O` [ALECTINIB], for which the Kd in assay [1], in assay [2], in assay [3], in assay [4] and in assay [5] was > 30 µM (inactive) throughout.

Turning to `Cc1cc(-c2cc(OC(=O)c3ccccc3)ccc2Cl)cc2nnc(Nc3ccc(OCCN4CCCC4)cc3)nc12` [TG100-801], the Kd in assay [1], in assay [2], in assay [3], in assay [4] and in assay [5] was > 30 µM (inactive) each time.

For `COc1cc2nccc(Oc3ccc(NC(=O)C4(C(=O)Nc5ccc(F)cc5)CC4)cc3)c2cc1OC` [CABOZANTINIB], the dissociation constant (Kd) in assay [1] is 2.63 µM (active); in assay [2] it was > 30 µM (inactive); in assay [3], > 30 µM (inactive); in assay [4], > 30 µM (inactive); in assay [5], > 30 µM (inactive).

Take `Cc1cc(Nc2nc(N[C@@H](C)c3ncc(F)cn3)ncc2Cl)n[nH]1` [AZD-1480]: the Kd in assay [1] is > 30 µM (inactive); in assay [2], > 30 µM (inactive); in assay [3], > 30 µM (inactive); in assay [4] it was > 30 µM (inactive); in assay [5], 0.86 µM (active).

For `Cc1ccc(C(=O)Nc2ccc(Oc3cc4cnn(C)c4cc3-c3cn[nH]c3)c(F)c2)c(=O)n1-c1ccc(F)cc1` [MERESTINIB], the Kd in assay [1], in assay [2], in assay [3], in assay [4] and in assay [5] was > 30 µM (inactive) in each case.

For `CNC(=O)c1cc(COc2nnc(Nc3ccc(Cl)cc3)c3ccoc23)ccn1` [TELATINIB], the Kd in assay [1], in assay [2], in assay [3], in assay [4] and in assay [5] was > 30 µM (inactive) in each case.

For the compound `CNC(=O)c1cccc(-c2ccc3c(N4CCOC[C@@H]4C)nc(N4CCOC[C@@H]4C)nc3n2)c1` [VISTUSERTIB], the Kd in assay [1], in assay [2], in assay [3], in assay [4] and in assay [5] was > 30 µM (inactive) throughout.

`O=C(NC[C@H](O)CO)c1ccncc1Nc1ccc(I)cc1F` [PIMASERTIB]: the Kd in assay [1], in assay [2], in assay [3], in assay [4] and in assay [5] was > 30 µM (inactive) in each case.

In the case of `CC(C)CC(=O)Nc1[nH]nc2c1CN(C(=O)C1CCN(C)CC1)C2(C)C` [PHA-793887], the Kd in assay [1], in assay [2], in assay [3], in assay [4] and in assay [5] was > 30 µM (inactive) throughout.

For the compound `O=C(NOC[C@H](O)CO)c1ccc(F)c(F)c1Nc1ccc(I)cc1F` [MIRDAMETINIB], the Kd in assay [1], in assay [2], in assay [3], in assay [4] and in assay [5] was > 30 µM (inactive) in each case.

For the compound `CC1(COc2ccc3c(c2)ncn3-c2ccc3cccc(N4CCC(N)CC4)c3n2)COC1` [CRENOLANIB], the Kd in assay [1] is 7.35 µM (active); in assay [2], > 30 µM (inactive); in assay [3], > 30 µM (inactive); in assay [4] it was > 30 µM (inactive); in assay [5] it was 0.743 µM (active).

`COc1ccc2c(OCc3nnc4ccc(-c5ccccc5)nn34)ccnc2c1` [AMG-208]: the Kd in assay [1], in assay [2], in assay [3], in assay [4] and in assay [5] was > 30 µM (inactive) in each case.

For the compound `COc1ccc(-c2ccc3ncc4c(c3c2)n(-c2ccc(N3CCNCC3)c(C(F)(F)F)c2)c(=O)n4C)cn1` [BGT-226 FREE BASE], the Kd in assay [1] was 3.11 µM (active); in assay [2], > 30 µM (inactive); in assay [3], > 30 µM (inactive); in assay [4], > 30 µM (inactive); in assay [5] it was > 30 µM (inactive).
